# Results as given in patent US5670667A, “Chroman-2-ylmethylamino derivatives” (American Home Products Corporation, priority 1996, dated 1997).
# Key:
# α1 = α1 IC50; type: binding
# 5-HT1a = biological target: T1, 5-HT1a (Homo sapiens, UniProt P08908); test: biochemical; type: binding
# T1 sequence (P08908 1-422): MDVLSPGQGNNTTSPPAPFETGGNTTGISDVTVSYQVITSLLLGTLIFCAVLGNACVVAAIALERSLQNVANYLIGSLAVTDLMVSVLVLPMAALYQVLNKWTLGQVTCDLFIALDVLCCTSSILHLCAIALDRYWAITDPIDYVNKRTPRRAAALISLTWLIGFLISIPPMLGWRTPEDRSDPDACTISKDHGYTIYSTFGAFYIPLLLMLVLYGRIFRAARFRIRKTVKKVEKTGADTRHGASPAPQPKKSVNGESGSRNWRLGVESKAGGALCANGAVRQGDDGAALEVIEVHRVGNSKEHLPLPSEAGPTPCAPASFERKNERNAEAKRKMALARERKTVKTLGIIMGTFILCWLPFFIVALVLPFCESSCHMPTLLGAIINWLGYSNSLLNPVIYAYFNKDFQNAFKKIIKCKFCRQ
SMILES,IC50 (α1) [nM],IC50 (5-HT1a) [nM]
c1ccc(CNCC2CCc3ccccc3O2)cc1 (centres unmarked) [reference compound],630,–
"Oc1ccc2c(c1)OC(CNCc1ccccc1)CC2 (centres unmarked) [Example 1f, 2-(Benzylamino-methyl)-chroman-7-ol]",1140,104
Fc1ccc(CNCC2CCc3ccccc3O2)cc1 (centres unmarked) [reference compound],1280,–
"Oc1ccc2c(c1)OC(CNCCCCc1ccccc1)CC2 (centres unmarked) [Example 1m, 2-[(4-Phenyl-butylamino)-methyl]-chroman-7-ol]",80,–
